# Measured values from patent US8680076B2, “Methods of treatment, improvement and prevention using haloaryl substituted aminopurines” (Signal Pharmaceuticals, LLC, priority 2010, dated 2014).
# “Also recorded” adds a separate entry of the source.
# Columns and labels:
# [1] = system: fibroblasts from SSc patients; assay: TGF-β and PDGF-induced total collagen secretion (SirCol assay); type: cell-based, human; settings: 1 μM
# Protocol: (§1) Dermal fibroblasts from two SSc patients were treated for 24 hours (hr) with Compound JNKi-1 at concentrations from 0.1 μM to 10 μM (0.5% DMSO/99.5% cell culture media). To study the effect of Compound JNKi-1 on growth factor-induced collagen expression, recombinant transforming growth factor beta (TGF-β) (final concentration of 10 ng/mL) or platelet-derived growth factor-BB (PDGF-BB) (final concentration of 40 ng/mL) were added to cells 2 hr after the addition of JNK-inhibitor Compound JNKi-1 for 24 hr. The expression of collagen proteins was analyzed by SirCol assay. The messenger ribonucleic acid (mRNA) levels of extracellular proteins were measured by real-time polymerase chain reaction (PCR). The β-actin mRNA was used as internal control for the measurement of Collagen 1a1 mRNA using PCR. Fibroblast proliferation assay was performed in the presence or absence of 1 μM Compound JNKi-1 for 24 hr with the (3-(4,5-Dimethylthiazol-2-yl)-2,5-diphenyltetrazolium bromide) (MTT) assay.
# The isolation of fibroblasts from human SSc patients and culture conditions used in this study have been previously described (Akhmetshina A, Dees C, Pileckyte M, Maurer B, Axmann R, Jüngel A, et al., Dual inhibition of c-abl and PDGF receptor signaling by dasatinib and nilotinib for the treatment of dermal fibrosis, FASEB J. 2008; 22(7):2214-22). […] Data are expressed as mean±standard error of the mean (SEM). […]
# [2] = system: dermal fibroblasts from SSc patients; assay: Expression of extracellular matrix proteins in dermal fibroblasts from SSc patients (real-time PCR, SirCol); type: cell-based, human
# Protocol: Using fibroblasts isolated from skin biopsies from human systemic sclerosis (SSc) patients, an in vitro study was performed to evaluate whether the selective JNK inhibitor Compound JNKi-1 affects the expression of key extracellular matrix proteins.
# as §1
# The isolation of fibroblasts from human SSc patients and culture conditions used in this study have been previously described (Akhmetshina A, Dees C, Pileckyte M, Maurer B, Axmann R, Jüngel A, et al., Dual inhibition of c-abl and PDGF receptor signaling by dasatinib and nilotinib for the treatment of dermal fibrosis, FASEB J. 2008; 22(7):2214-22). Fibroblast cultures were obtained from skin biopsies of SSc patients. […] Biopsies from SSc patients were taken from involved skin of the forearm. After enzymatic digestion of the skin biopsies with Dispase II, fibroblasts were cultured in DMEM/F-12 containing 10% heat inactivated fetal calf serum (FCS), 100 U/mL penicillin, 100 μg/mL streptomycin, 2 mM L-glutamine and 2.5 μg/mL amphotericin B (all Invitrogen, Karlsruhe, Germany). Fibroblasts from passages 4-8 were used for the experiments. Data are expressed as mean±standard error of the mean (SEM).
# [3] = system: mice, bleomycin-induced pre-established dermal fibrosis; assay: Modified model of bleomycin-induced dermal fibrosis (regression of established fibrosis); type: in vivo, mouse
# Excerpt: To evaluate, whether inhibition of JNK might also be effective for the treatment of established fibrosis, a modified model of bleomycin-induced dermal fibrosis was used. […] Thus, Compound JNKi-1 decreased the level of dermal thickness under the pre-treatment level (127±4% vs 175±8% compared to NaCl injections for 6 weeks, p=0.008 and p=0.021) (FIG. 7A).
# [4] = system: fibroblasts from SSc patients; assay: MTT assay, SSc fibroblast viability; type: cell-based, human; settings: 1 μM, 24-hr incubation
# Protocol: as §1
# The isolation of fibroblasts from human SSc patients and culture conditions used in this study have been previously described (Akhmetshina A, Dees C, Pileckyte M, Maurer B, Axmann R, Jüngel A, et al., Dual inhibition of c-abl and PDGF receptor signaling by dasatinib and nilotinib for the treatment of dermal fibrosis, FASEB J. 2008; 22(7):2214-22). […] Data are expressed as mean±standard error of the mean (SEM).
# [5] = system: c-Jun (JNK) in human skin; assay: UVB-irradiated human skin, c-Jun IHC (3-way crossover study); type: in vivo; settings: for median subjective score of c-Jun: scale 0-4
# Protocol: The inhibitory effect of JNKi-1 on JNK was evaluated by assessing the status of the downstream substrate c-Jun (“cJun”) and phospho-c-Jun (or “p-cJun”) following UV irradiation of human skin.
# The study was designed as randomized, double blind, placebo controlled, multiple dose, 3-way crossover study. Fifteen subjects were randomized to one of 3 sequences (5 subjects per sequence) as outlined below (see Table 3). There was a 7-day to 10 day washout period (no more than 14 days) from the last dose of the previous period to the first dose of the next period.
# Fifteen patients enrolled, 14 completed the study and were included in the PD and PK analyses; all were healthy Caucasian male volunteers with Fitzpatrick skin type 2. The mean age was […] (20-49 years) and weight was 81 kg (64-96 kg). On the evening of Day-1, patients started fasting (at least an 8-hour fast prior to dosing on Day 1). Subjects received treatment A, B or C in Periods 1 to 3 under fasting conditions in an order based on the randomization scheme. Subjects went through the same procedures (except for the change in treatment) for all 3 periods, with the required washout in between periods. No strenuous activities were permitted during confinement. All efforts were made to keep activities, environment, food, procedures, and schedule between treatment periods identical.
# On Day 6, subjects received a 2×MED UV dose to two sites on the buttock. One punch biopsy (approximately 3 mm in diameter by 0.8 mm in depth) was taken from one of the two UV irradiated sites. The punch biopsies were taken at 8 (±5 minutes) hours post UV exposure on Day 6.
# Skin specimens from the biopsies was analyzed for phospho c-Jun and total c-Jun using IHC assay. Phospho c-Jun was quantified using a 0-4 subjective grading scales and/or objective scoring using an automated system, i.e. a laser scanning cytometer (LSC), evaluating the integrated intensity of staining measured optically.
# Biopsies were analyzed following the procedures described below to evaluate phospho c-Jun and c-Jun expression using IHC assay. The method employed to assess JNK activation was a two antibody IHC assay that employed a primary antibody, directed against the target, and a secondary antibody conjugated with a chromogenic enzyme. Thus, the method was a two-step immunohistochemical assay designed to interrogate the target, c-Jun and phospho c-Jun. Any changes in JNK activity were measurable in the amounts of these target molecules, c-Jun and phospho c-Jun. The secondary antibody-reporter conjugate deposited a red color when incubated with the substrate reaction mix, thus marking the location of the primary antibody target complex. The red color was then recorded with standard bright-field illumination using a Nikon microscope. The microscope images were then photographed and electronic images were scored (blinded) by three independent and trained scorers using the following guidelines. A score of 0 indicated staining of 0-19% of the epithelial keratinocyte nuclei; a score of 1 indicated staining of 20-39% of the epithelial keratinocyte nuclei; a score of 2 indicated staining of 40-59% of the epithelial keratinocyte nuclei; a score of 3 indicated staining of 60-79% of the epithelial keratinocyte nuclei; and a score of 4 indicated staining of 80-100% of the epithelial keratinocyte nuclei. FIG. 21 depicts representative immunostaining for the respective scores.
# For each tissue, a count of nuclei in the epithelial layer was obtained. All phospho c-Jun or c-Jun positive nuclei were counted as well as their integral (intensity). A score was calculated for each: score=(p-cJun or cJun positive nuclei×average Intensity)/Total nuclei.
# [6] = 1 μM, 24 hr, compared to mock-treated fibroblasts
# [7] = 150 mg/kg for the last 3 weeks of 6 weeks bleomycin
smiles,measurement,setting,value
"O[C@H]1CC[C@H](Nc2ncc3nc(Nc4c(F)cc(F)cc4F)n([C@H]4CCOC4)c3n2)CC1 [JNKi-1, 4-((9-((3S)-tetrahydro-3-furanyl)-8-((2,4,6-trifluorophenyl)amino)-9H-purin-2-yl)amino)-trans-cyclohexanol]",TGF-β and PDGF-induced collagen secretion,[1],modestly inhibited
same,expression of extracellular matrix proteins (in words),"[2]; 0.1 μM to 10 μM, 24 hr",reduced expression; also recorded: dose-dependently reduced
same,reduction of col 1a1 mRNA level,[2]; [6],71±11%
same,reduction of col 1a2 mRNA level,[2]; [6],61±13%
same,reduction of fibronectin-1 mRNA level,[2]; [6],55±14%
same,reduction of collagen protein in the supernatant,"[2]; 1 μM, compared to control",21±7%
same,concentration at which maximal effects were observed,"[2]; tested 0.1 μM to 10 μM, 24 hr",1 µM
same,"dermal thickness, normalized to NaCl injections for 6 weeks = 100%",[3]; 150 mg/kg BID for the last 3 weeks of 6 weeks bleomycin,127±4%
same,accumulation of collagen (hydroxyproline assay),[3]; [7],significantly reduced
same,"number of myofibroblasts, normalized to NaCl injections for 6 weeks = 100%",[3]; [7],171±31%
same,regression of established fibrosis / dermal thickening (in words),[3]; treatment for the last 3 weeks of continuous bleomycin challenge,induced regression of dermal thickening; also recorded: induced regression of fibrosis
same,cytotoxic effect / cell viability (MTT),[4],does not exert its inhibitory effects indirectly by reducing cell viability; also recorded: no cytotoxic effect
same,median subjective score of c-Jun,[5]; 75 mg QD x 6 days,3
same,"odds ratio, c-Jun scores 0, 1, 2 vs. scores 3, 4 (logistic regression)",[5]; 75 mg vs. placebo,3.69
same,median subjective score of c-Jun,[5]; 200 mg QD x 6 days,2
same,frequency of high c-Jun subjective scores,[5]; 200 mg vs placebo,fewer subjects had high cJun scores; also recorded: fewer patients had high scores
same,"odds ratio, c-Jun scores 0, 1, 2 vs. scores 3, 4 (logistic regression)",[5]; 200 mg vs. placebo,9.30
same,"c-Jun immunostaining, percentage of positive epithelial nuclei, Patient 15",[5]; versus placebo,significantly decreased
